Laboratory results reported in US20100008983A1 (priority 2008, published 2010).
Counter-ions that a name gives are not always drawn. Like-named read-outs stand apart in the source and are kept apart here.

Conditions: stirring

Solubility (Observation: amount soluble, clear solution) (Capmul MCM (glyceryl mono- & dicaprate), RT): 64 mg/g soluble, | Solubility (Observation: amount soluble, clear solution) (Cremophor EL (polyoxyethylene castor oil derivative), RT): 25 mg/g soluble, | Solubility (Observation: amount soluble, clear solution) (Ethanol, RT): 66.6 mg/g soluble, | Solubility (Observation) (Gelucire 44/14 (Lauroyl macrogol-32 glyceride), 45-50° C.): Not soluble | Solubility (Observation) (Labrafil M 1944 CS (polyoxyethylated glycolysed glycerides), 37° C.): Not soluble | Solubility (Observation) (Labrafil M 1944 CS (polyoxyethylated glycolysed glycerides), RT): Not soluble | Solubility (Observation: amount soluble, clear solution) (Labrasol (Caprylocaproyl macrogol-8 glyceride), 37-40° C.): 10 mg/g soluble, | Solubility (Observation) (Miglyol 810 (Caprylic/Capric Triglyceride), 37° C.): Not soluble | Solubility (Observation) (Miglyol 810 (Caprylic/Capric Triglyceride), RT): Not soluble | Solubility (Observation: amount soluble, clear solution) (Polyethylene Glycol 400, RT): 25 mg/g soluble, | Solubility (Observation: amount soluble, clear solution) (Propylene Glycol, RT): 25 mg/g soluble, | Solubility (Observation) (Soybean oil, 37° C.): Not soluble | Solubility (Observation) (Soybean oil, RT): Not soluble | Solubility (Observation: amount soluble, clear solution) (Transcutol (2-(2-ethoxyethoxy)ethanol), RT): 25 mg/g soluble, | Solubility (Observation: amount soluble, clear solution) (Tween 80 (polyoxyethylene sorbitan fatty acid esters), RT): 10 mg/g soluble,
SMILES: C#CCN[C@@H]1CCc2ccccc21 [Rasagiline mesylate, R(+)-N-propargyl-1-aminoindan]
